Source: ChEMBL document CHEMBL1201862, “PubChem BioAssay data set” (2004)
Calls of active or inactive are those of the source.

Assays:
cells [1] = assay: cells
NADPH oxidase 1 = target: T1, NADPH oxidase 1 (Homo sapiens, UniProt Q9Y5S8); type: functional, cell-based;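 note: Cell-based assay with luminescence read-out, IC50 derived from inhibitor dose-response curves; intracellular ROS from endogenous NOX1 in intact HT29 colon cancer cells; potency of inhibitors that lower the ROS luminescence signal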
T1 sequence (Q9Y5S8 whole entry): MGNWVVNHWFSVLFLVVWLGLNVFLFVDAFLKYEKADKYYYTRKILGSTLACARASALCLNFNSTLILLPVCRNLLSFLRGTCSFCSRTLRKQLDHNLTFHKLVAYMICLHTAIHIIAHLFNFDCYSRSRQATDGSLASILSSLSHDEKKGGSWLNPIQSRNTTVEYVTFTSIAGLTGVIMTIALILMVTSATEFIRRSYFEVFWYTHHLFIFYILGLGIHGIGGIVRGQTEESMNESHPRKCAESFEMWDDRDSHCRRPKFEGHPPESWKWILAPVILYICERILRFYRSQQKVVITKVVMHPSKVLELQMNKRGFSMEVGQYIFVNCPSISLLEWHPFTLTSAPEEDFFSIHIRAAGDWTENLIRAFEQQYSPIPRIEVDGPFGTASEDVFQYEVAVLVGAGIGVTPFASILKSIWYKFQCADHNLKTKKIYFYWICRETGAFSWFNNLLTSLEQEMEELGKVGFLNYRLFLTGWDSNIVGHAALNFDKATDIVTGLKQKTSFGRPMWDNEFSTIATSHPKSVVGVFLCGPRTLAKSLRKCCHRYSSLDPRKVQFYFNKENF

Estrogen receptor = target: T2, Estrogen receptor (Homo sapiens, UniProt P03372); assay: ERα coactivator recruitment enhancers – biochemical, TR-FRET, ERα LBD, dose response (AID 737)
T2 sequence (P03372 whole entry): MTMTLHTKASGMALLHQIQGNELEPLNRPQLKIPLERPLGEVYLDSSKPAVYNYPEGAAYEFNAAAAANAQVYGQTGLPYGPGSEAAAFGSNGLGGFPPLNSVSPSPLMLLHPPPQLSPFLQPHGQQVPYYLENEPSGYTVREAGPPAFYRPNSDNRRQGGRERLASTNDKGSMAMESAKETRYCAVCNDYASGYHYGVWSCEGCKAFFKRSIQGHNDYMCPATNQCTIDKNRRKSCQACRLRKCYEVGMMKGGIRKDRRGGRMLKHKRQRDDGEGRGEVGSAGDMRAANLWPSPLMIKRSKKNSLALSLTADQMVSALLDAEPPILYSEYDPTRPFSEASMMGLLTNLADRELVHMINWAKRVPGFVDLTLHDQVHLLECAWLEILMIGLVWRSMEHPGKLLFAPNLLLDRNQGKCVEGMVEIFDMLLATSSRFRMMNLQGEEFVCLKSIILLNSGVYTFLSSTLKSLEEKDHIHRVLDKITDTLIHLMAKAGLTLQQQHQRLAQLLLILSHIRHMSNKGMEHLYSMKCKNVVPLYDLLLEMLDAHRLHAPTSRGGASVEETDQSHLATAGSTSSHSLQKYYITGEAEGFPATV

[2] = target: T3, Neuropeptide Y receptor type 2 (Homo sapiens, UniProt P49146); assay: Fluorescence-based cell-based high-throughput dose response assay for agonists of NPY-Y2. [Related pubchem assays: 1703 (Screening assay (CNGC inhibitors).), 1359 (Screening assay (NPY-Y2 potentiators or agonists).), 1304 (Screening assay (NPY-Y1 potentiators or agonists).), 1710 (Screening assay (NPY-Y2 agonists).), 1791 (Summary AID.)]; type: functional
T3 sequence (P49146 whole entry): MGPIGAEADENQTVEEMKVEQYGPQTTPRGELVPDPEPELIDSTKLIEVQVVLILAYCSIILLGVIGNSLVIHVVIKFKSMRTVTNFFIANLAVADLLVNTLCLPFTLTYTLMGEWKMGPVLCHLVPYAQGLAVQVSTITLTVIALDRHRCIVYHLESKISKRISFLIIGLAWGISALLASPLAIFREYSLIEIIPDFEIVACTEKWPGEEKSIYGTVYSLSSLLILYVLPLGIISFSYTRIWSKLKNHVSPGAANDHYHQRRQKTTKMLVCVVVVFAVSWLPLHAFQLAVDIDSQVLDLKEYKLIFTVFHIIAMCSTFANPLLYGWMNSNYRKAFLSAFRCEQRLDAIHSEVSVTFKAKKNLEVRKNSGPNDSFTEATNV

[3] = target: T4, Neuropeptide Y receptor type 1 (Homo sapiens, UniProt P25929); assay: Fluorescence-based counterscreen for agonists of NPY-Y2: cell-based high-throughput dose response assay for agonists of NPY-Y1.; type: functional
T4 sequence (P25929 whole entry): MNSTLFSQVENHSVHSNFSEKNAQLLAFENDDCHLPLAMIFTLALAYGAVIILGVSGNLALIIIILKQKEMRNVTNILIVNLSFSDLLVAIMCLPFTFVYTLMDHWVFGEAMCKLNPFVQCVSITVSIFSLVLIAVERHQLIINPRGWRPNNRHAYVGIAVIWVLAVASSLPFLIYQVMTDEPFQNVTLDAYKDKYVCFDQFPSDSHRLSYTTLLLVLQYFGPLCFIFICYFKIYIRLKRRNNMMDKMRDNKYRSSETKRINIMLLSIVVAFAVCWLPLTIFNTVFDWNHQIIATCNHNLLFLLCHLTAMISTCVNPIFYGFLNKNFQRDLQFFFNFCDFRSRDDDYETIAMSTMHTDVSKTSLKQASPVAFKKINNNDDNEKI

HEK293 = assay: Fluorescence-based counterscreen for potentiators or agonists of NPY-Y2: cell-based high-throughput dose response assay to identify inhibitors of cyclic nucleotide gated ion channel (CNGC) activity. In this assay, the parental HEK293 cell line transfected with a cyclic-nucleotide gated ion channel (CNGC)-based cAMP sensor is used to measure inhibition of isoproterenol-induced CNGC activity by test compound.; type: functional; settings: Homo sapiens;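 note: stimulus is 1 µM isoproterenol at EC100 plus PDE inhibitor Ro 20-1724 at 25 µM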
[4] = target: T5, Heat shock factor protein 1 (Mus musculus, UniProt P38532); assay: decrease of HSF1-responsive luciferase luminescence – cell-based, NIH3T3, dose retest, confirmation (AID 2382); type: functional;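 note: NIH3T3 fibroblasts with HSF1-driven luciferase reporter stressed by proteasome inhibitor MG132; luminescence from HSF1-driven luciferase expression after 8 hours of MG132 stress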
T5 sequence (P38532 whole entry): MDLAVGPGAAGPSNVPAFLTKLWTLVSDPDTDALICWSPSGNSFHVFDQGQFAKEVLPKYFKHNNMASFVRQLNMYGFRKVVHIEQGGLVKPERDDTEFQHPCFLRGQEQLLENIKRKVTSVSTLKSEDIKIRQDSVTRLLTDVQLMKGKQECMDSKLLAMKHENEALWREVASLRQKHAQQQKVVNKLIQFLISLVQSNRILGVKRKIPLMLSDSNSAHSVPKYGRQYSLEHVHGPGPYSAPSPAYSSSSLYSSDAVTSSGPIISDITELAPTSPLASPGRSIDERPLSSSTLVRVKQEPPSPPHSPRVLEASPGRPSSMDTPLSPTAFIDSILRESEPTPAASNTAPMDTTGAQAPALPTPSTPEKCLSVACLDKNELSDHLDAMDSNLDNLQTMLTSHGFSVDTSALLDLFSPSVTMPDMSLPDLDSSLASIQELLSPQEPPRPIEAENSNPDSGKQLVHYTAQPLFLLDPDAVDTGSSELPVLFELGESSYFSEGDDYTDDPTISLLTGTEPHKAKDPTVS

[5] = viability loss in HEK293 cells – cell-based, plate reader, cherry-picked samples, cytotoxicity control, dose response (AID 743446); type: functional
[6] = alpha-synuclein stem-loop translation blockers – luminescence, H4 neuroglioblastoma cells, dose confirmation, confirmation (AID 2454); type: functional, cell-based;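 note: H4 neuroglioblastoma cells carrying an alpha-synuclein 5'UTR luciferase reporter; potency for inhibition of the luciferase signal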
[7] = toxicity toward HepG2 liver cells – cell-based, plate reader, cherry-pick, antagonist series, cytotoxicity control, dose response (AID 743416); type: functional
[8] = blockade of melanocortin 4 receptor signaling – cell-based, plate reader, cherry pick, counter-screen for LGR2 antagonist project, dose response (AID 743444); type: functional;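 note: transfected HEK 293 cells stimulated with alpha-MSH peptide; potency of inhibitors of the alpha-MSH evoked signal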
[9] = Luminescence Cell-Based Dose Response HTS to Identify Inhibitors of 5'UTR Stem-Loop Driven Prion Protein mRNA Translation in H4 Neuroglioblastoma Cells. [Related pubchem assays: 1827 (Project Summary), 1813 (Primary HTS)]; type: functional
[10] = alpha-synuclein stem-loop luciferase translation blockers – H4 neuroglioma cells, luminescence, confirmation (AID 1988); type: functional, cell-based
cells [11] = type: functional, cell-based
[12] = luciferase reporter signal suppression in cells – H4 neuroglioma cells, luminescence, dose response (AID 1990); type: functional, cell-based
[13] = Luminescence-based counterscreen assay for KLF5 inhibitors: dose response cell-based high throughput screening assay to identify cytotoxic compounds using the IEC-6 intestinal epithelial cell line. [Related pubchem assays: 1700 (Primary screen.), 1834 (Confirmation screen.), 1858 (Summary AID.), 1905 (Counterscreen.)]; type: functional
[14] = blockers of bursicon-stimulated LGR2 cAMP reporter – cell-based, HEK293, CRE-luciferase reporter, cherry pick, set 2, dose response (AID 743343); type: functional;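 note: transfected cells were stimulated with diluted bursicon conditioned medium after compound addition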
[15] = luciferase reporter signal reduction – luminescence, H4-C neuroglioblastoma cells, dose response (AID 2458); type: functional, cell-based;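 note: H4 neuroglioblastoma cells stably carrying a luciferase reporter gene fusion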
[16] = target: Inward rectifier potassium channel 2 (Mus musculus, UniProt P35561); assay: Manual electrophysiological patch clamp assay for SAR compounds that inhibit/block inward-rectifying potassium ion channel Kir2.1. [Related pubchem assays: 1843 (Summary assay for Kir2.1 inhibitor assays.), 1672 (Primary HTS of 305616 compounds where 2592 were identified as active.)]; type: functional
Chain of Inward rectifier potassium channel 2 (P35561 whole entry): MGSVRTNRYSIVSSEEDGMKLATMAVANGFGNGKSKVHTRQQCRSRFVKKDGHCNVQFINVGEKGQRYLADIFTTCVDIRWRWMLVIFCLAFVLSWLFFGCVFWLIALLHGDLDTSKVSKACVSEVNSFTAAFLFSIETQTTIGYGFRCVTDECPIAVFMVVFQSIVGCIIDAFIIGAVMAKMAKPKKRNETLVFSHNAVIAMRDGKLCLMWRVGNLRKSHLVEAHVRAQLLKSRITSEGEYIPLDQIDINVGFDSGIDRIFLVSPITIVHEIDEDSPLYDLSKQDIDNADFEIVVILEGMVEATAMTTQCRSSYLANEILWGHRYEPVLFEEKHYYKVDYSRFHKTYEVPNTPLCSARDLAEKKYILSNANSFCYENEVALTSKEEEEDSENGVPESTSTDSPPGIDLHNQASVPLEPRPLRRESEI

[17] = antiviral protection against BTV-induced cell death – arbovirus, BSR cells, confirmation (AID 1250); type: functional;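 note: protection from viral cytopathic effect measured as cell viability by ATP luminescence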

Question: Which IC50 (cells [1]) does the source give for O=C(CCn1c(=O)c2sccc2n(Cc2cc(=O)n3ccccc3n2)c1=O)NCc1ccco1 here?
Answer: 24.4 µM (active)

Question: With O=C1Nc2ccccc2/C1=N/NC(=S)Nc1ccccc1 as the compound, how does the IC50 (NADPH oxidase 1) read?
Answer: > 17 µM (not active)

Question: With Cc1cccc(N2CCN(C(=O)c3cc4c(=O)n(C)c5ccccc5c4n3C)CC2)c1C as the compound, how does the EC50 (Estrogen receptor) read?
Answer: 12.8 µM (active)

Question: For OC1(c2ccc(OC(F)F)cc2)CS/C(=N\c2cccnc2)N1Cc1ccco1 (stereo unspecified), which EC50 [2] is on record?
Answer: > 35.4 µM (not active)

Question: What about the EC50 [3] of the same compound?
Answer: > 35.4 µM (not active)

Question: What about the EC50 (HEK293) of the same compound?
Answer: > 35.4 µM (not active)

Question: With CCc1ccn2cc(-c3cc(-c4ccccc4)no3)nc2c1 as the compound, how does the EC50 [4] read?
Answer: < 0.16 µM (active)

Question: And the AC50 [5]?
Answer: > 52 µM (inactive)

Question: What about the EC50 [6] of the same compound?
Answer: 1.12 µM (active)

Question: What about the AC50 [7] of the same compound?
Answer: 25.4 µM (active)

Question: What about the AC50 [8] of the same compound?
Answer: 0.701 µM (active)

Question: And the EC50 [9]?
Answer: < 0.1 µM (active)

Question: And the EC50 [10]?
Answer: 0.13 µM (active)

Question: And the EC50 (cells [11])?
Answer: > 12 µM (inconclusive)

Question: What about the EC50 [12] of the same compound?
Answer: 0.207 µM (active)

Question: What about the IC50 [13] of the same compound?
Answer: > 39.8 µM (not active)

Question: And the AC50 [14]?
Answer: 0.805 µM (active)

Question: What about the EC50 [15] of the same compound?
Answer: 1.2 µM (active)

Question: For COc1ccc(CNCc2ccc(Cl)cc2Cl)cc1, which IC50 [16] is on record?
Answer: 3.13 µM (active)

Question: For COc1ccc(CNCc2ccc(OC)cc2)cc1, which IC50 [16] is on record?
Answer: 1.88 µM (active)

Question: With COc1ccc(-c2csc(Nc3ccc(C)cn3)n2)cc1OC as the compound, how does the IC50 [17] read?
Answer: 35.9 µM (active)
